Data as given in patent US20070254910A1, “CHEMICAL COMPOUNDS” (priority 2004, published 2007).

test system: HIV; assay: HOS HIV anti-infectivity assay (strain not stated); type: cell-based; settings: HOS HIV anti-infectivity assay; read-out: Activity Level
Procedure: Compounds were profiled against two HIV-1 viruses, the M-tropic (CCR5 utilizing) Ba-L strain and the T-tropic (CXCR4 utilizing) IIIB strain. Both viruses were propagated in human peripheral blood lymphocytes. Compounds were tested for there ability to block infection of the HOS cell line (expressing hCXCR4/hCCR5/hCD4/pHIV-LTR-luciferase) by either HIV-1 Ba-L or HIV-1 IIIB. Compound cytotoxicity was also examined in the absence of virus addition.
HOS cells (expressing hCXCR4/hCCR5/hCD4/pHIV-LTR-luciferase) were harvested and diluted in Dulbeccos modified Eagles media supplemented with 2% FCS and non-essential amino acid to a concentration of 60,000 cells/ml. The cells were plated into 96-well plates (100 ul per well) and the plates were placed in a tissue culture incubator (37° C.; 5% CO2/95% air) for a period of 24 h.
Subsequently, 50 ul of the desired drug solution (4 times the final concentration) was added to each well and the plates were returned to the tissue culture incubator (37° C.; 5% CO2/95% air) for 1 h. Following this incubation 50 ul of diluted virus was added to each well (approximately 2 million RLU per well of virus). The plates were returned to the tissue culture incubator (37° C.; 5% CO2/95% air) and were incubated for a further 96 h.
Following this incubation the endpoint for the virally infected cultures was quantified following addition of Steady-Glo Luciferase assay system reagent (Promega, Madison, Wis.). Cell viability or non-infected cultures was measured using a CellTiter-Glo luminescent cell viability assay system (Promega, Madison, Wis.). All luminescent readouts are performed on a Topcount luminescence detector (Packard, Meridien, Conn.).

IC50 [nM] | Structure (SMILES)
100 to 500 | CN1CCN(c2cccc3nc(CN(C)C4CCCc5cccnc54)c(C(O)C(F)(F)F)n23)CC1 (stereo not drawn) [Example 89B, 2,2,2-Trifluoro-1-(5-(4-methyl-1-piperazinyl)-2-{[methyl(5,6,7,8-tetrahydro-8-quinolinyl)amino]methyl}imidazo[1,2-a]pyridin-3-yl)ethanol]

same assay, conditions: Human immunodeficiency virus 1, HOS HIV anti-infectivity assay; read-out: Activity Level

Structure (SMILES) | IC50 [nM]
COCc1c(CN(C)[C@H]2CCCc3cccnc32)nc2cccc(N3CCN(C)CC3)n12 [Example 86, (8S)—N-Methyl-N-{[3-[(methyloxy)methyl]-5-(4-methyl-1-piperazinyl)imidazo[1,2-a]pyridin-2-yl]methyl}-5,6,7,8-tetrahydro-8-quinolinamine] | < 100
CCOCc1c(CN(C)[C@H]2CCCc3cccnc32)nc2cccc(N3CCN(C)CC3)n12 [Example 87, (8S)—N-{[3-[(Ethyloxy)methyl]-5-(4-methyl-1-piperazinyl)imidazo[1,2-a]pyridin-2-yl]methyl}-N-methyl-5,6,7,8-tetrahydro-8-quinolinamine] | < 100
CC(c1nc2cccc(N3CCN(C)CC3)n2c1CO)N(C)[C@H]1CCCc2cccnc21 (stereo partly drawn) [Example 88, [5-(4-Methyl-1-piperazinyl)-2-(1-{methyl[(8S)-5,6,7,8-tetrahydro-8-quinolinyl]amino}ethyl)imidazo[1,2-a]pyridin-3-yl]methanol] | < 100
CN1CCN(c2cccc3nc(CN(C)C4CCCc5cccnc54)c(C(O)C(F)(F)F)n23)CC1 (stereo not drawn) [Example 89A, 2,2,2-Trifluoro-1-(5-(4-methyl-1-piperazinyl)-2-{[methyl(5,6,7,8-tetrahydro-8-quinolinyl)amino]methyl}imidazo[1,2-a]pyridin-3-yl)ethanol] | < 100

Second part, the compound after the results:

IC50 [nM] | Structure (SMILES)
< 100 | CN(Cc1nc2cccc(OCCN3CCCC3)n2c1CO)[C@H]1CCCc2cccnc21 [Example 80, (2-({Methyl[(8S)-5,6,7,8-tetrahydro-8-quinolinyl]amino}methyl)-5-{[2-(1-pyrrolidinyl)ethyl]oxy}imidazo[1,2-a]pyridin-3-yl)methanol]
< 100 | CN(Cc1nc2cccc(OCCN3CCCCC3)n2c1CO)[C@H]1CCCc2cccnc21 [Example 82, (2-({Methyl[(8S)-5,6,7,8-tetrahydro-8-quinolinyl]amino}methyl)-5-{[2-(1-piperidinyl)ethyl]oxy}imidazo[1,2-a]pyridin-3-yl)methanol]
< 100 | CC(O)c1c(CN(C)[C@H]2CCCc3cccnc32)nc2cccc(N3CCN(C)CC3)n12 (stereo partly drawn) [Example 84, 1-[5-(4-Methyl-1-piperazinyl)-2-({methyl[(8S)-5,6,7,8-tetrahydro-8-quinolinyl]amino}methyl)imidazo[1,2-a]pyridin-3-yl]ethanol]
< 100 | CCC(O)c1c(CN(C)[C@H]2CCCc3cccnc32)nc2cccc(N3CCN(C)CC3)n12 (stereo partly drawn) [Example 85, 1-[5-(4-Methyl-1-piperazinyl)-2-({methyl[(8S)-5,6,7,8-tetrahydro-8-quinolinyl]amino}methyl)imidazo[1,2-a]pyridin-3-yl]-1-propanol]
